Data published in the NIST ThermoML archive (doi:10.1016/j.jct.2015.02.022).
Where a name gives a salt, the structure may show the parent alone.

What was measured:
[1] = Liquid; for mass density / viscosity: 101.33 kPa; for mass density: Pycnometric method; for vapor or sublimation pressure: Closed cell (Static) method; for viscosity: Capillary tube (Ostwald / Ubbelohde) method
[2] = refractive index (Na D-line) (dimensionless); conditions: 293.15 K; 101.33 kPa; Liquid; Standard Abbe refractometry

CCOC(=O)C(F)(F)F [ethyl trifluoroacetate]
[1]
Conditions	mass density [kg/m3]	vapor or sublimation pressure [kPa]	viscosity [mPa·s]
278.08 K	1218.9	–	–
285.15 K	1205.9	–	–
289.23 K	1197.6	–	–
293.35 K	–	17.93	–
293.45 K	–	–	0.4635
293.68 K	1188.3	–	–
296.02 K	–	–	0.4506
298.3 K	–	22.86	–
298.63 K	–	–	0.4356
298.84 K	1179	–	–
300.75 K	–	25.36	–
301.19 K	–	–	0.4234
303.35 K	–	28.45	–
303.75 K	–	–	0.4107
303.86 K	1168	–	–
305.85 K	–	31.2	–
306.3 K	–	–	0.3986
307.89 K	1160.9	–	–
308.35 K	–	34.13	–
308.85 K	–	–	0.3881
310.85 K	–	38	–
311.33 K	–	–	0.3775
312.65 K	1151.4	–	–
313.35 K	–	42.3	–
313.93 K	–	–	0.3674
315.85 K	–	47.2	–
316.43 K	–	–	0.3581
317.43 K	1142.2	–	–
318.4 K	–	52	–
318.96 K	–	–	0.3497
320.97 K	–	57.2	–
321.63 K	–	–	0.3399
322.5 K	1131.3	–	–
323.45 K	–	63.2	–
324.15 K	–	–	0.3314
326.15 K	–	70.64	–
326.69 K	–	–	0.323
328.75 K	–	77.9	–
329.16 K	–	–	0.3153
331.45 K	–	86.5	–
331.64 K	–	–	0.3075
334.05 K	–	94.15	–
334.32 K	–	–	0.3009
335.25 K	–	99.92	–
335.65 K	–	101.33	–

Conditions	refractive index
[2]	1.3086

CO [methanol]
[1]
Conditions	vapor or sublimation pressure [kPa]	viscosity [mPa·s]
293.35 K	13.54	–
302.45 K	–	0.513
303.35 K	22.05	–
310.85 K	31.07	–
313.5 K	–	0.443
320.97 K	49.45	–
323.55 K	–	0.386
331.45 K	77.05	–
333.85 K	–	0.345
335.95 K	95.83	–
